# Experimental data taken from patent publication US10196378B2, “Inhibitors of BCR-ABL mutants and use thereof” (THE REGENTS OF THE UNIVERSITY OF MICHIGAN, priority 2016, dated 2019).
# Legend:
# [1] = tested on: chronic myelogenous leukemia; conditions: CML patients; about 30% prior to any targeted therapy; cited from earlier work
# [2] = tested on: parental IL-3 dependent Ba/F3 cells; test: cells; conditions: Mus musculus, BaF3, read-out: GI50, Ba/F3 parental
# PDGFRα = PDGFRα (Homo sapiens (Human), UniProt P16234); test: NanoSyn single-concentration kinase inhibition; assay type: biochemical; conditions: read-out: % inhibition at 100 nM, PDGFRα
# Csk = Csk (Homo sapiens (Human), UniProt P41240); test: NanoSyn single-concentration kinase inhibition; assay type: biochemical; conditions: read-out: % inhibition at 100 nM, Csk
# VEGFR1 (FLT1) = VEGFR1 (FLT1) (Homo sapiens (Human), UniProt P17948); test: NanoSyn single-concentration kinase inhibition; assay type: biochemical
# Lyn-A = Lyn-A (Homo sapiens (Human), UniProt P07948); test: NanoSyn single-concentration kinase inhibition; assay type: biochemical; conditions: read-out: % inhibition at 100 nM, Lyn-A
# PDGFRβ = PDGFRβ (Homo sapiens (Human), UniProt P09619); test: NanoSyn single-concentration kinase inhibition; assay type: biochemical; conditions: read-out: % inhibition at 100 nM, PDGFRβ
# MAP4K5 = MAP4K5 (Homo sapiens (Human), UniProt Q9Y4K4); test: NanoSyn single-concentration kinase inhibition; assay type: biochemical; conditions: read-out: % inhibition at 100 nM, MAP4K5
# BV-173 = test: Growth inhibition (GI50) in BV-173 CML cells; assay type: cell-based; conditions: Homo sapiens, BV-173, read-out: GI50, BV-173
# BV-173R = test: Growth inhibition (GI50) in BV-173R CML cells; assay type: cell-based; conditions: read-out: GI50, BV-173R
# Lck = Lck (Homo sapiens (Human), UniProt P06239); test: NanoSyn single-concentration kinase inhibition; assay type: biochemical; conditions: read-out: % inhibition at 100 nM, Lck
# C-Raf = C-Raf (Homo sapiens (Human), UniProt P04049); test: NanoSyn single-concentration kinase inhibition; assay type: biochemical; conditions: read-out: % inhibition at 100 nM, C-Raf
# VEGFR2 (KDR) [3] = target: T1, VEGFR2 (KDR) (Homo sapiens (Human), UniProt P35968); test: biochemical; conditions: read-out: % inhibition at 100 nM, VEGFR2 (KDR), 100 nM
# VEGFR3 (FLT4) = VEGFR3 (FLT4) (Homo sapiens (Human), UniProt P35916); test: NanoSyn single-concentration kinase inhibition; assay type: biochemical; conditions: read-out: % inhibition at 100 nM, VEGFR3 (FLT4)
# [4] = phase I trial, cited from earlier work
# FGFR1 = FGFR1 (Homo sapiens (Human), UniProt P11362); test: NanoSyn single-concentration kinase inhibition; assay type: biochemical; conditions: read-out: % inhibition at 100 nM, FGFR1
# EPH-A3 = EPH-A3 (Homo sapiens (Human), UniProt P29320); test: NanoSyn single-concentration kinase inhibition; assay type: biochemical; conditions: read-out: % inhibition at 100 nM, EPH-A3
# FLT3 = FLT3 (Homo sapiens (Human), UniProt P36888); test: NanoSyn single-concentration kinase inhibition; assay type: biochemical; conditions: read-out: % inhibition at 100 nM, FLT3
# Tie2 = Tie2 (Homo sapiens (Human), UniProt Q02763); test: NanoSyn single-concentration kinase inhibition; assay type: biochemical; conditions: read-out: % inhibition at 100 nM, Tie2
# FGFR3 = FGFR3 (Homo sapiens (Human), UniProt P22607); test: NanoSyn single-concentration kinase inhibition; assay type: biochemical; conditions: read-out: % inhibition at 100 nM, FGFR3
# VEGFR2 (KDR) [5] = target: T1, VEGFR2 (KDR)
# Abl2/Arg = Abl2/Arg (Homo sapiens (Human), UniProt P42684); test: NanoSyn single-concentration kinase inhibition; assay type: biochemical; conditions: read-out: % inhibition at 100 nM, Abl2/Arg
# K562 = test: Growth inhibition (GI50) in K562 CML cells; assay type: cell-based; conditions: Homo sapiens, K562, read-out: GI50, K562
# Sequence of VEGFR1 (FLT1) (P17948 27-1338, species assumed): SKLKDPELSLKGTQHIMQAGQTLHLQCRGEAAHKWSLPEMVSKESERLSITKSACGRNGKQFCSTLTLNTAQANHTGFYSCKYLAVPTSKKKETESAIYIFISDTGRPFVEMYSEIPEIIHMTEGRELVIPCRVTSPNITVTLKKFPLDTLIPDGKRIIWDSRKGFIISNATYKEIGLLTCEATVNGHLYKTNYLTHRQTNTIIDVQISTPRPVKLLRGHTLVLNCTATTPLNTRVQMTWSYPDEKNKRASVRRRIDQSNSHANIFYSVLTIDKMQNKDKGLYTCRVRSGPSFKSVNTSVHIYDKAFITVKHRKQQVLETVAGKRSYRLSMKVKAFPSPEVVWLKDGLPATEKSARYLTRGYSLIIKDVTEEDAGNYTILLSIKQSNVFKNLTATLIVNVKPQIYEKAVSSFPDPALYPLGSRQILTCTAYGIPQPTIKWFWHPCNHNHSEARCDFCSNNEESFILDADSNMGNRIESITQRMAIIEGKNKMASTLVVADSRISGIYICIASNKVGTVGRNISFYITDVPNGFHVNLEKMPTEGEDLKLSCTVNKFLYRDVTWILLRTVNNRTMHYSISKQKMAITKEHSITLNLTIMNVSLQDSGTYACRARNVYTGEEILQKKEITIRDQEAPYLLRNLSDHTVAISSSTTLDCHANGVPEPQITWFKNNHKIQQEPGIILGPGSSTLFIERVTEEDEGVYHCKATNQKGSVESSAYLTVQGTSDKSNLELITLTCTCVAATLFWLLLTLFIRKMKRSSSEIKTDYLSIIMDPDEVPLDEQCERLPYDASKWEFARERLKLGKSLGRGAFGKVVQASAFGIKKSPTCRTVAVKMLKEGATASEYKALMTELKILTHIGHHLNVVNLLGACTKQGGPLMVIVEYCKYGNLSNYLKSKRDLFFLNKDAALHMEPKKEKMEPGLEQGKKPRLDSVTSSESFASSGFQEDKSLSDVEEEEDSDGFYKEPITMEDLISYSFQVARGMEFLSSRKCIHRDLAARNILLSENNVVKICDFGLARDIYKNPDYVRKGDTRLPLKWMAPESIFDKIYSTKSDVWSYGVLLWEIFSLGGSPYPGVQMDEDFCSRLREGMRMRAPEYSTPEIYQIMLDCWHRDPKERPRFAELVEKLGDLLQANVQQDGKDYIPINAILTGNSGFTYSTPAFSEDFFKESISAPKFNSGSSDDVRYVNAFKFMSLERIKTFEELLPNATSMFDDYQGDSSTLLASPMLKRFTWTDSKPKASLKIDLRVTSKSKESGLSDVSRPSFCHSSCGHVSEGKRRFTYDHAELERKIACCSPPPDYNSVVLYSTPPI
# T1 sequence (P35968 20-1356, species assumed): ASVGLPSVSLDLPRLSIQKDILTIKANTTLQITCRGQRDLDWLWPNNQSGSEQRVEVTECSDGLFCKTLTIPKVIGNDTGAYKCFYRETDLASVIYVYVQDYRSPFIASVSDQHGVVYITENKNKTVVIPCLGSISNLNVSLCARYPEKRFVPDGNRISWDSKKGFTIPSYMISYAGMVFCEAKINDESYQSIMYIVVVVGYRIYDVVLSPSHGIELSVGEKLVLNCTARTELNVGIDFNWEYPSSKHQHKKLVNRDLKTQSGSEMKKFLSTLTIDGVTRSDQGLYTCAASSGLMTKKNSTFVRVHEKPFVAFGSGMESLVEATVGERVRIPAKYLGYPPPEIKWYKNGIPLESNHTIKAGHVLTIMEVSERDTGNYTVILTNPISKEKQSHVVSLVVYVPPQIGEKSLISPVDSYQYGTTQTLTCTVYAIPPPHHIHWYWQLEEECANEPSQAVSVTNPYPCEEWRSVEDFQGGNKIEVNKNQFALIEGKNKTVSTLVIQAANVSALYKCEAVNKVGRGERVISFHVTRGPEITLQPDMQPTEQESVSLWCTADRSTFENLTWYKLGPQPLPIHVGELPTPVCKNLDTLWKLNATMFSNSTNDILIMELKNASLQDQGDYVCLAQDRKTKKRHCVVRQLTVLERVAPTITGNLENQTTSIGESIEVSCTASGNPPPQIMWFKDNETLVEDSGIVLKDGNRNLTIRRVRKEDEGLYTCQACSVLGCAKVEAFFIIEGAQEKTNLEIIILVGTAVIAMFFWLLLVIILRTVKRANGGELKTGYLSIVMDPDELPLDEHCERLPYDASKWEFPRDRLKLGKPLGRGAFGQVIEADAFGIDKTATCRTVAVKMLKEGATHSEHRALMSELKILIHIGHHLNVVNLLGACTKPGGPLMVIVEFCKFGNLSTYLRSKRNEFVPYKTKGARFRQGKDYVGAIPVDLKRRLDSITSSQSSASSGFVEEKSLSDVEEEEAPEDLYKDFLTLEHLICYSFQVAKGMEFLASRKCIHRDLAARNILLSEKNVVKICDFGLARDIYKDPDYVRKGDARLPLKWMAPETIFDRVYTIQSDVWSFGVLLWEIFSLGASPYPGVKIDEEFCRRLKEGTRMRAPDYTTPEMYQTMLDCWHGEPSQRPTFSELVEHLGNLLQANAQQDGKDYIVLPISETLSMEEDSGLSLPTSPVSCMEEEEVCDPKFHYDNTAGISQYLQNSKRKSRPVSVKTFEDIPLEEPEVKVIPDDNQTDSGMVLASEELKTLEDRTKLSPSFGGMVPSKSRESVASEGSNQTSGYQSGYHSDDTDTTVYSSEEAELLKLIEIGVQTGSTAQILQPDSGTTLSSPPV
# Sequence of Lyn-A (P07948 whole entry, species assumed): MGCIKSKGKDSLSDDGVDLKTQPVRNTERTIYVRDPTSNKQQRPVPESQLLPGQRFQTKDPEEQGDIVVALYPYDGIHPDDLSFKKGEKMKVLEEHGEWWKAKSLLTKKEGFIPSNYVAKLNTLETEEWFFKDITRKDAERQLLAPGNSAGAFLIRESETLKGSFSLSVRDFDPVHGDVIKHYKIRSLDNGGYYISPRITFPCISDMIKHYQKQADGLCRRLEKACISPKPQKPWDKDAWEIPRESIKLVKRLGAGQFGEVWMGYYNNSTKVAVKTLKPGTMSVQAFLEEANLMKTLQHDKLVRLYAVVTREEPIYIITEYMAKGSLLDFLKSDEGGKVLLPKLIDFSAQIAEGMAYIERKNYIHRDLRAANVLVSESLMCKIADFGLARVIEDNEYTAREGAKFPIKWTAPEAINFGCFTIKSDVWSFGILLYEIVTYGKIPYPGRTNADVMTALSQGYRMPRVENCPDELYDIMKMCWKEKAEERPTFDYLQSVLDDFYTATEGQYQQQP
# Sequence of PDGFRα (P16234 24-1089, species assumed): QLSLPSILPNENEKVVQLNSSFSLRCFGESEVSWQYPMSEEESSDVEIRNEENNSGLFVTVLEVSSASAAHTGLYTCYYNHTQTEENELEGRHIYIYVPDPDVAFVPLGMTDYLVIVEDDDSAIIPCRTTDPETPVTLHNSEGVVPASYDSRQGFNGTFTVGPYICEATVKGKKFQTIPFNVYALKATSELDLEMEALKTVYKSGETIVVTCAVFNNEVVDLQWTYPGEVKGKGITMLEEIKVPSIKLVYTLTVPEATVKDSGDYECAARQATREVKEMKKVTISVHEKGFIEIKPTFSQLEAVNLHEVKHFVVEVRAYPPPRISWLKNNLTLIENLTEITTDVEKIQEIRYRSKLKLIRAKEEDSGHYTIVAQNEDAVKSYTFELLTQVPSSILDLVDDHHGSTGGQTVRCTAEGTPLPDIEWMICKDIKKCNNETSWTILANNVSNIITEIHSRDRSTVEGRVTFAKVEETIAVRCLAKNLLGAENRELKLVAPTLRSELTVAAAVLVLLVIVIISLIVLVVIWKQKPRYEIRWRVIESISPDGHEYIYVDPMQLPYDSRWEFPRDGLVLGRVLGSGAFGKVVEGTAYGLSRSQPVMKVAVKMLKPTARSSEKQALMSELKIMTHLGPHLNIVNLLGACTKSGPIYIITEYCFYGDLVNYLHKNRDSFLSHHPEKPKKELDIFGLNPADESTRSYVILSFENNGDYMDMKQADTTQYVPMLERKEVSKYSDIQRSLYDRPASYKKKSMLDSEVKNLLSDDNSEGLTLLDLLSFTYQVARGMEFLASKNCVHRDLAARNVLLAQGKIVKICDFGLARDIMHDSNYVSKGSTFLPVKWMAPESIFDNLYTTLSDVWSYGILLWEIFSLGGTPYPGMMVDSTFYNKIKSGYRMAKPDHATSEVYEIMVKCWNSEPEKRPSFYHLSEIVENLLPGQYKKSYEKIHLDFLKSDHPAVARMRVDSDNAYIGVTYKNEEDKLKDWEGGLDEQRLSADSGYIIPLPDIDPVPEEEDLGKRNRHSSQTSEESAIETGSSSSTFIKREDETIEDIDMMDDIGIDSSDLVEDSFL
# Sequence of Csk (P41240 whole entry, species assumed): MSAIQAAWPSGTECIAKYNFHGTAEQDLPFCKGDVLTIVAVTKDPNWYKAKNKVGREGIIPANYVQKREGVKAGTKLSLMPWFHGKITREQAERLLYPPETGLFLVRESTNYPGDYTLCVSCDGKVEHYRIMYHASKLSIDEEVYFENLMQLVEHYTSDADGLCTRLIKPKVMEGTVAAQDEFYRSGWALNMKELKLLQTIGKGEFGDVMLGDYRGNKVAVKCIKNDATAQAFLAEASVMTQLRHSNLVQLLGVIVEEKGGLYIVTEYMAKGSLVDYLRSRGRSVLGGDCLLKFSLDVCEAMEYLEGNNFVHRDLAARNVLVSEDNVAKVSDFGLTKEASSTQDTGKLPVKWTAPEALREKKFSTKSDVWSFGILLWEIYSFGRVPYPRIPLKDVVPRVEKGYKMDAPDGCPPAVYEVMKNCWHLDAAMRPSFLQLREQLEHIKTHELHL
structure (smiles),measurement,setting,value
Cc1ccc(NC(=O)c2ccc(CN3CCN(C)CC3)cc2)cc1Nc1nccc(-c2cccnc2)n1 [imatinib],5-year overall survival rate,[1],90%
CN1CCN(Cc2ccc(NC(=O)Nc3ccc(Oc4ccc5cccnc5c4)cc3)cc2C(F)(F)F)CC1 [Compound C06],GI50,[2],5.22 µM
CNC(=O)c1cc(Oc2ccc(NC(=O)Nc3ccc(CN4CCN(C)CC4)c(C(F)(F)F)c3)cc2)ccn1 [Compound C01],GI50,[2],4.84 µM
CN1CCN(Cc2ccc(NC(=O)Nc3ccc(Oc4ccc5ncccc5c4)cc3)cc2C(F)(F)F)CC1 [Compound C05],GI50,[2],5.3 µM
Cc1ccc(C(=O)Nc2ccc(CN3CCN(C)CC3)c(C(F)(F)F)c2)cc1C#Cc1cnc2cccnn12 [ponatinib],inhibition at 0.1 µM,PDGFRα,98%
same,inhibition at 0.1 µM,Csk,100%
same,"% inhibition at 100 nM, VEGFR1 (FLT1)",VEGFR1 (FLT1); 100 nM,107%
same,inhibition at 0.1 µM,"VEGFR1 (FLT1); read-out: % inhibition at 100 nM, VEGFR1 (FLT1), 100 nM",100%
same,inhibition at 0.1 µM,Lyn-A,99%
same,inhibition at 0.1 µM,PDGFRβ,108%
same,inhibition at 0.1 µM,MAP4K5,102%
same,GI50,BV-173,6 nM
same,GI50,BV-173R,15 nM
same,inhibition at 0.1 µM,Lck,99%
same,inhibition at 0.1 µM,C-Raf,118%
same,inhibition at 0.1 µM,VEGFR2 (KDR) [3],100%
same,inhibition at 0.1 µM,VEGFR3 (FLT4),100%
same,patients with serious vascular AEs,[4]; median follow-up of 2.7 years,48%
same,patients who developed arterial or venous thrombosis and occlusions,[4],Twenty-seven
same,"patients with heart failure, including fatalities",[4],8%
same,inhibition at 0.1 µM,FGFR1,102%
same,inhibition at 0.1 µM,EPH-A3,101%
same,inhibition at 0.1 µM,FLT3,95%
same,inhibition at 0.1 µM,Tie2,95%
same,inhibition at 0.1 µM,FGFR3,91%
same,"% inhibition at 100 nM, VEGFR2 (KDR)",VEGFR2 (KDR) [5],102%
same,inhibition at 0.1 µM,Abl2/Arg,99%
same,GI50,K562,2.5 nM
CN1CCN(Cc2ccc(NC(=O)Nc3ccc(Nc4ccc5ncccc5c4)cc3)cc2C(F)(F)F)CC1 [Compound C04],GI50,[2],5.12 µM
CN1CCN(Cc2ccc(NC(=O)Nc3ccc(Oc4ccc5ncncc5c4)cc3)cc2C(F)(F)F)CC1 [Compound C03],GI50,[2],5.58 µM
CN1CCN(Cc2ccc(NC(=O)Nc3ccc(Oc4ccncc4)cc3)cc2C(F)(F)F)CC1 [Compound C02],GI50,[2],5 µM
